Measurements published in ChEMBL document CHEMBL1201862, “PubChem BioAssay data set” (2004).
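Step 1: Grow cells in 96-well plates. Step 2: Expose to compound for 48 hours at 5 concentrations. Step 3: Interpolate endpoints linearly; if unreached, use highest concentration. GI50 is the concentration that inhibits growth by half.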 The source made the active and inactive calls. Rule as the data show it: active = GI50 up to about 1.1 µM and inactive = higher.

Key:
Test in all cases: inhibition of tumour cell growth, NCI panel, 48 h
[1] = test system: 786-0
[2] = test system: CAKI-1
[3] = test system: CCRF-CEM
[4] = test system: DU-145
[5] = test system: HCT-15
[6] = test system: HL-60
[7] = test system: KM12
[8] = test system: Malme-3M
[9] = test system: NCI-H460
[10] = test system: NCI-H522
[11] = test system: NCI/ADR-RES
[12] = test system: OVCAR-8
[13] = test system: RPMI-8226
[14] = test system: SF-295
[15] = test system: SNB-19
[16] = test system: SNB-75
[17] = test system: T47D
[18] = test system: TK-10
[19] = test system: UO-31
[20] = test system: LOX IMVI

CC(=O)Nc1ccc2cc(C)c(O)nc2n1
GI50 [1]: 52.1 µM (inactive) | GI50 [2]: > 100 µM (inactive) | GI50 [3]: > 100 µM (inactive) | GI50 [4]: > 100 µM (inactive) | GI50 [5]: > 100 µM | GI50 [6]: > 100 µM (inactive) | GI50 [7]: > 100 µM (inactive) | GI50 [8]: > 100 µM (inactive) | GI50 [9]: > 100 µM (inactive) | GI50 [10]: > 100 µM (inactive) | GI50 [11]: 8.09 µM (inactive) | GI50 [12]: > 100 µM (inactive) | GI50 [13]: > 100 µM (inactive) | GI50 [14]: > 100 µM (inactive) | GI50 [15]: > 100 µM (inactive) | GI50 [16]: 43.7 µM (inactive) | GI50 [17]: > 100 µM (inactive) | GI50 [18]: > 100 µM (inactive) | GI50 [19]: > 100 µM (inactive)

O=C(O)C1CCCN1Cc1ccc2c(c1)OCO2 (centres undefined)
GI50 [1]: > 100 µM (inactive) | GI50 [2]: > 100 µM (inactive) | GI50 [4]: > 100 µM (inactive) | GI50 [5]: > 100 µM | GI50 [7]: > 100 µM (inactive) | GI50 [20]: > 100 µM (inactive) | GI50 [8]: > 100 µM (inactive) | GI50 [9]: > 100 µM (inactive) | GI50 [10]: > 100 µM (inactive) | GI50 [11]: > 100 µM (inactive) | GI50 [12]: > 100 µM (inactive) | GI50 [13]: > 100 µM (inactive) | GI50 [14]: > 100 µM (inactive) | GI50 [15]: > 100 µM (inactive) | GI50 [16]: 18.4 µM (inactive) | GI50 [17]: > 100 µM (inactive) | GI50 [18]: > 100 µM (inactive) | GI50 [19]: > 100 µM (inactive)

COc1cc(/C=C2/SC(c3ccccc3)N(c3ccccc3)C2=O)cc(OC)c1OC (centres undefined)
GI50 [1]: > 100 µM (inactive) | GI50 [2]: > 100 µM (inactive) | GI50 [3]: 10.6 µM (inactive) | GI50 [4]: > 100 µM (inactive) | GI50 [5]: 61.7 µM | GI50 [6]: 35.6 µM (inactive) | GI50 [7]: 30.3 µM (inactive) | GI50 [20]: 69.5 µM (inactive) | GI50 [8]: 80.2 µM (inactive) | GI50 [9]: 76 µM (inactive) | GI50 [10]: 21.7 µM (inactive) | GI50 [11]: 48.2 µM (inactive) | GI50 [12]: 76.4 µM (inactive) | GI50 [13]: 9.66 µM (inactive) | GI50 [14]: 27 µM (inactive) | GI50 [15]: > 100 µM (inactive) | GI50 [17]: 36.2 µM (inactive) | GI50 [18]: > 100 µM (inactive) | GI50 [19]: 29.5 µM (inactive)

COc1ccc(-n2c(N)c(C#N)[nH]c2=O)cc1
GI50 [1]: > 10 µM (inactive) | GI50 [3]: > 10 µM (inactive) | GI50 [4]: > 10 µM (inactive) | GI50 [5]: > 10 µM | GI50 [6]: > 10 µM (inactive) | GI50 [7]: > 10 µM (inactive) | GI50 [20]: 1.79 µM (inactive) | GI50 [8]: > 10 µM (inactive) | GI50 [9]: > 10 µM (inactive) | GI50 [10]: > 10 µM (inactive) | GI50 [11]: > 10 µM (inactive) | GI50 [12]: > 10 µM (inactive) | GI50 [13]: > 10 µM (inactive) | GI50 [14]: 2.77 µM (inactive) | GI50 [15]: > 10 µM (inactive) | GI50 [16]: > 10 µM (inactive) | GI50 [17]: > 10 µM (inactive) | GI50 [18]: > 10 µM (inactive) | GI50 [19]: > 10 µM (inactive)

N#C/N=C1/c2ccccc2/C(=N/C#N)c2cc(CO)ccc21
GI50 [1]: 36.8 µM (inactive) | GI50 [2]: 25.3 µM (inactive) | GI50 [4]: 26 µM (inactive) | GI50 [5]: 27.2 µM | GI50 [6]: 21.6 µM (inactive) | GI50 [7]: 31.8 µM (inactive) | GI50 [20]: 30.5 µM (inactive) | GI50 [9]: 12.5 µM (inactive) | GI50 [10]: 39 µM (inactive) | GI50 [11]: 28.5 µM (inactive) | GI50 [12]: 37.8 µM (inactive) | GI50 [13]: 2.95 µM (inactive) | GI50 [14]: 32.6 µM (inactive) | GI50 [15]: 51.8 µM (inactive) | GI50 [16]: 24.2 µM (inactive) | GI50 [17]: 31.6 µM (inactive) | GI50 [18]: 27.3 µM (inactive) | GI50 [19]: 30.2 µM (inactive)

CCN(CC)C(=O)N1CN(c2ccccc2)C2(CCN(CCCC3(c4ccc(F)cc4)OCCO3)CC2)C1=O
GI50 [1]: 18.6 µM (inactive) | GI50 [2]: > 100 µM (inactive) | GI50 [3]: 13.9 µM (inactive) | GI50 [4]: 12.2 µM (inactive) | GI50 [5]: 15.2 µM | GI50 [6]: 12.7 µM (inactive) | GI50 [7]: 16.5 µM (inactive) | GI50 [20]: 12.7 µM (inactive) | GI50 [8]: 19.1 µM (inactive) | GI50 [10]: 13.7 µM (inactive) | GI50 [11]: 23.6 µM (inactive) | GI50 [12]: 19.8 µM (inactive) | GI50 [13]: 12.9 µM (inactive) | GI50 [14]: 25.4 µM (inactive) | GI50 [15]: 30.3 µM (inactive) | GI50 [16]: 19.7 µM (inactive) | GI50 [17]: 5.9 µM (inactive) | GI50 [18]: 17.5 µM (inactive) | GI50 [19]: 18.4 µM (inactive)

CCOC(=O)C1=C(C)N(Cc2ccc(Cl)cc2Cl)C2(O)C=CC(=O)C3C(=O)N(c4ccccc4)C(=O)C132 (centres undefined)
GI50 [1]: 3.24 µM (inactive) | GI50 [2]: 3.02 µM (inactive) | GI50 [3]: 0.222 µM (active) | GI50 [4]: 1.36 µM (inactive) | GI50 [5]: 1.52 µM | GI50 [6]: 1.46 µM (inactive) | GI50 [7]: 1.71 µM (inactive) | GI50 [20]: 0.682 µM (active) | GI50 [8]: 2.09 µM (inactive) | GI50 [9]: 2.1 µM (inactive) | GI50 [10]: 1.72 µM (inactive) | GI50 [11]: 2.29 µM (inactive) | GI50 [12]: 2.02 µM (inactive) | GI50 [13]: 0.308 µM (active) | GI50 [14]: 2.88 µM (inactive) | GI50 [15]: 1.88 µM (inactive) | GI50 [17]: 1.55 µM (inactive) | GI50 [18]: 2.72 µM (inactive) | GI50 [19]: 2.07 µM (inactive)

Cc1cn(C2CC(O)C(Cn3nncc3Cn3ccc(=O)[nH]c3=O)O2)c(=O)[nH]c1=O (centres undefined)
GI50 [1]: > 100 µM (inactive) | GI50 [2]: > 100 µM (inactive) | GI50 [3]: > 100 µM (inactive) | GI50 [4]: > 100 µM (inactive) | GI50 [5]: > 100 µM | GI50 [6]: > 100 µM (inactive) | GI50 [7]: > 100 µM (inactive) | GI50 [20]: > 100 µM (inactive) | GI50 [8]: > 100 µM (inactive) | GI50 [10]: > 100 µM (inactive) | GI50 [11]: > 100 µM (inactive) | GI50 [12]: > 100 µM (inactive) | GI50 [13]: > 100 µM (inactive) | GI50 [14]: > 100 µM (inactive) | GI50 [15]: > 100 µM (inactive) | GI50 [16]: > 100 µM (inactive) | GI50 [17]: > 100 µM (inactive) | GI50 [18]: > 100 µM (inactive) | GI50 [19]: > 100 µM (inactive)

CSc1c(C(N)=S)c(N)nn1-c1ccccc1
GI50 [1]: > 100 µM (inactive) | GI50 [2]: > 100 µM (inactive) | GI50 [4]: > 100 µM (inactive) | GI50 [5]: > 100 µM | GI50 [6]: > 100 µM (inactive) | GI50 [7]: > 100 µM (inactive) | GI50 [20]: > 100 µM (inactive) | GI50 [8]: > 100 µM (inactive) | GI50 [9]: > 100 µM (inactive) | GI50 [10]: > 100 µM (inactive) | GI50 [11]: > 100 µM (inactive) | GI50 [12]: > 100 µM (inactive) | GI50 [13]: > 100 µM (inactive) | GI50 [15]: > 100 µM (inactive) | GI50 [16]: > 100 µM (inactive) | GI50 [17]: > 100 µM (inactive) | GI50 [18]: > 100 µM (inactive) | GI50 [19]: > 100 µM (inactive)

CN1C(=O)c2ccccc2OC12C=Cc1ccc(O)cc1O2 (centres undefined)
GI50 [1]: 31.6 µM (inactive) | GI50 [2]: 16.1 µM (inactive) | GI50 [3]: 19.3 µM (inactive) | GI50 [4]: 22.6 µM (inactive) | GI50 [5]: 29.6 µM | GI50 [6]: 17.8 µM (inactive) | GI50 [7]: 25.2 µM (inactive) | GI50 [20]: 9.62 µM (inactive) | GI50 [9]: 20 µM (inactive) | GI50 [10]: 20.4 µM (inactive) | GI50 [11]: 13.5 µM (inactive) | GI50 [12]: 12.7 µM (inactive) | GI50 [13]: 30.3 µM (inactive) | GI50 [14]: 29.9 µM (inactive) | GI50 [15]: 20.4 µM (inactive) | GI50 [16]: 22.8 µM (inactive) | GI50 [17]: 13.8 µM (inactive) | GI50 [18]: 26.8 µM (inactive) | GI50 [19]: 18.7 µM (inactive)

CCN(CC)C(=S)SC [METHYLDIETHYL CARBAMODITHIOATE]
GI50 [1]: > 100 µM (inactive) | GI50 [3]: > 100 µM (inactive) | GI50 [4]: > 100 µM (inactive) | GI50 [5]: > 100 µM | GI50 [6]: > 100 µM (inactive) | GI50 [20]: > 100 µM (inactive) | GI50 [8]: > 100 µM (inactive) | GI50 [9]: > 100 µM (inactive) | GI50 [10]: > 100 µM (inactive) | GI50 [11]: > 100 µM (inactive) | GI50 [12]: > 100 µM (inactive) | GI50 [13]: > 100 µM (inactive) | GI50 [14]: > 100 µM (inactive) | GI50 [15]: > 100 µM (inactive) | GI50 [16]: > 100 µM (inactive) | GI50 [17]: > 100 µM (inactive) | GI50 [18]: > 100 µM (inactive)
